Results as given in paper PMC6293271, “Bactericidal/Permeability-Increasing Protein Is an Enhancer of Bacterial Lipoprotein Recognition” (Frontiers in Immunology, 2018).
Ends that are not written are not given here. * marks the point of attachment. Palmitoyl = CCCCCCCCCCCCCCCC(=O)*

Key:
BPIN(A) = molecular target: T1, BPIN(A) (Homo sapiens, UniProt P17213); test: MicroScale Thermophoresis (MST) binding assay with neutrophil BPI; conditions: 25°C
T1 construct: Bactericidal/permeability-increasing protein (BPI) extracted from neutrophils; purchased Athens Research and Technology; host or cells: neutrophils
T1 sequence (P17213 32-487): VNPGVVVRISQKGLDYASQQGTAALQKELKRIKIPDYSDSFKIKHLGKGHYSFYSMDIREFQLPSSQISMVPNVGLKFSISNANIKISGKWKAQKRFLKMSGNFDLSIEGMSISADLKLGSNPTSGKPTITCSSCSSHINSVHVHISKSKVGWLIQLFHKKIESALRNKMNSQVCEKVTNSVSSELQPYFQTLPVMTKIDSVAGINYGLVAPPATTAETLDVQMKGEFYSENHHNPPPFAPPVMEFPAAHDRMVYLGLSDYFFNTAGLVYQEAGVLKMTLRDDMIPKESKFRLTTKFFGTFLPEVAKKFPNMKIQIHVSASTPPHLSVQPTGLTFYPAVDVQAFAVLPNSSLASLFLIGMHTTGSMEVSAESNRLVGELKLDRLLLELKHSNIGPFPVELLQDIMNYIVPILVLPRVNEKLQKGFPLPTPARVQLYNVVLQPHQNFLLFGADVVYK
Procedure: BPIN(A) and rBPI were labeled with NT647 in PBS pH 7.4 (Monolith NT™ Protein Labeling Kit RED—NHS, NanoTemper Technologies, Munich, Germany). Concentration of labeled protein was determined using the NanoDrop (ThermoScientific, Wilmington, NC, USA) and Bradford assay (Promega, Mannheim, Germany). MicroScale Thermophoresis (MST) binding experiments were carried out with 5 nM labeled protein in binding buffer (10 mM HEPES pH 7.4, 150 mM NaCl, 0.1% Tween) with 0.05–1,679 nM of LPS EC or 0.196–6,436 nM of Pam3CSK4 or 0.61–20,000 nM of LTA SAΔlgt and LTA SPΔlgt or of >0.61–20,000 nM WTA SPΔlgt at 20–40% MST power, 20% LED power in premium capillaries on a Monolith NT.115 pico device at 25°C (NanoTemper Technologies, Munich, Germany). For MST binding assays based on Pam3CSK4 Fluorescein, 20 nM of the fluorescent molecule in binding buffer (10 mM HEPES pH 7.4, 150 mM NaCl, 0.1% Tween) was supplied with 0.018–600 nM BPIN(A) and measured at 40% MST power, 10% LED power in premium capillaries on a Monolith NT.115 pico device at 25°C (NanoTemper Technologies, Munich, Germany).
MST timetraces were recorded and the temperature jump or, respectively, thermophoresis was analyzed. The recorded fluorescence was plotted against the ligand concentration and curve fitting was performed with KaleidaGraph 4.5 using the dissocation constant (KD) fit formula derived from the law of mass action. […]

TLR2 = system: TLR2; design: method as in PMID 15193414; conditions: cited from earlier work
rBPI [1] = system: T2, rBPI; test: BPI microtiter binding assay, LPS biotin-coated plates; design: species or system human; conditions: ligand pre-incubated with 20 nM rBPI
T2 construct: the human BPI (aa 32-487) and a C-terminal FLAG Tag; HA signal peptide (N); made in house; host or cells: HEK293T
Procedure: BPI binding assays were performed using a protocol published for LBP ([9]) with some modifications. Streptavidin-coated 96-well plates (Nunc^TM Immobilizer^TM Streptavidin F96 clear, Thermo Fisher Scientific, Waltham, MA, USA) were coated with LPS biotin (2 μg/ml) or Pam2CSK4 biotin (1 μg/ml) in PBS overnight at 23°C with gentle agitation. After washing with assay buffer (150 mM NaCl, 50 mM HEPES, Sigma Aldrich, Taufkirchen, Germany) containing 0.01% Casein, plates were blocked with 10 g/l BSA (Sigma Aldrich, Taufkirchen, Germany) at 37°C and washed again. Thereafter, ligands were preincubated with 20 nM BPI in assay buffer containing 1 g/l BSA for 30 min and loaded onto the plates. In case of bacterial lysates, 0.05% Tween 20 was added for preincubation. After incubation for 1 h at 37°C, three washing steps were performed. Bound BPI was detected by murine anti-human BPI monoclonal antibody (Cat.-No. HM2042, Hycult Biotech, Uden, Netherlands) and HRP-conjugated rabbit anti-mouse IgG (Cat.-No. 315-035-048, Dianova, Hamburg, Germany). TMB (BD OptEIA^TM TMB Substrate Reagent Set, BD Biosciences, Heidelberg, Germany) was used as a substrate for peroxidase. After addition of 1 N HCl, absorbance was measured at 450 nm. Technical replicates were performed at least two times using exactly the same reagents and are not indicated for the BPI microtiter binding assay. Biological replicates shown here are experiments independently performed by using separately formulated solutions of the reagents.

rBPI [2] = system: T2, rBPI; test: NanoDSF thermal stability of rBPI with ligand; format: binding, human; conditions: 5 μM rBPI, 30 μM ligand, PBS pH 7.4
Procedure: For thermal unfolding experiments, rBPI protein was diluted to a final concentration of 5 μM in PBS pH 7.4, either containing a ligand at 30 μM concentration [(R)-Pam3CSK4, (R)-FSL-1 or LPS EC] or in the absence of a ligand. For each condition, 10 μl of sample per capillary were prepared. The samples were loaded into UV capillaries and experiments were carried out using the Prometheus NT.48 (NanoTemper Technologies, Munich, Germany). The temperature gradient was set to an increase of 1°C/min with a range from 20 to 90°C. Protein unfolding was measured by detecting the temperature-dependent change in tryptophan fluorescence at emission wavelength of 350 nm (Figure 3E, upper panel). Melting temperature (Tm) was determined by detecting the maximum of the first derivative of the fluorescence wavelength 350 nm. For this purpose, an 8th order polynomial fit was calculated for the transition region (Figure 3E, lower panel). Next, the first derivative of the fit was formed and the peak position (at Tm) was determined. Finally, Tm shift (Tm protein alone — Tm protein with ligand) upon addition of ligand to the protein (in°C) was calculated. Technical and biological replicates were defined as described for BPI microtiter binding assays.

| Compound | TLR2-stimulatory potential (TLR2) | inhibition of binding of rBPI to LPS biotin-coated wells (rBPI [1]) | also measured |
| --- | --- | --- | --- |
| Pam3CSK4 Fluorescein: Pam3CSK4, covalently labeled with fluorescein (CSKKKK) | – | – | Kd (BPIN(A); 20 nM Pam3CSK4 Fluorescein incubated with increasing concentrations of unlabeled BPIN(A)): 20.3 nM |
| Pam 2^* CSK4: di-acylated lipopeptide; acyl-chain deleted at the O-2-position of the thioglycerol core (CSKKKK; also: di-acylated lipopeptide, acyl chain deleted at O-2 of thioglycerol core) | lack TLR2-stimulatory potential | lower inhibitory potential | – |
| (R)-Pam2CSK4: di-acylated lipopeptide; acyl-chain deleted at the amino-terminal cysteine of the residual peptide (CSKKKK; di-acylated: diacyl-thioglycerol motif on the cysteine; no acyl-chain at the amino-terminal cysteine of the residual peptide) | – | lower inhibitory potential | change in melting temperature (Tm) of rBPI (rBPI [2]): decrease in Tm |
| PamCSK4: mono-acylated lipopeptide; glycerol-core with two fatty acids deleted, peptide with only one fatty acid (Palmitoyl-CSKKKK) | lack TLR2-stimulatory potential | not enough to completely block the inhibitory potential | – |
| Pam3CSK4: tri-acylated lipopeptide; racemate of (R)-Pam3CSK4 and (S)-Pam3CSK4 (Palmitoyl-CSKKKK; not fully specified (residue 1); also: racemate of (R) and (S) forms at the glycerol centre) | – | inhibited binding of rBPI to LPS in a dose-dependent manner | Kd (BPIN(A); BPIN(A) NT647 (5 nM) incubated with increasing concentrations of ligand): 66.7 nM |
| CCCCCCCCCCCCCCCC(=O)OCC(CO)OC(=O)CCCCCCCCCCCCCCC (stereo not shown) [DAG, Diacyl-glycerol 16:0] | – | no inhibitory binding | – |
